According to patent publication US11541057B2, “Thienopyrimidinone NMDA receptor modulators and uses thereof” (Cadent Therapeutics, Inc., priority 2015, dated 2023):

What follows are molecules tested against T1, NMDA receptor GRIN1/GRIN2B (NR2B) expressed in HEK293 cells (Homo sapiens, UniProt Q13224) (assay: Reversal of Ro 25-6981-mediated suppression of the Ca2+ response (fluo-8 fluorescence, FDSS) in HEK293 cells expressing GRIN1 and GRIN2B). Settings: % reversal=100*(R−Rneg)/(Rpos−Rneg) of Ro 25-6981 suppression of co-agonist (glutamate/glycine) Ca2+ response, 10 min pre-incubation, compound concentration not given.
T1 construct: host or cells: HEK293
Assay type: cell-based
Experimental: HEK293 cells with constructs conferring stable expression of the GRIN1 gene and tetracycline-inducible expression of the GRIN2B gene (Chantest, Cleveland, Ohio) are grown to ˜75% confluence in tissue culture flasks at 37° C., 5% CO2. NR2B expression is induced by overnight incubation with 0.3-0.4 μg/ml tetracycline in the presence of 2.5 mM ARL-15896 at 37° C., followed by moving to 30° C. for 3-5 hours. Cells are next harvested using TripleExpress™ (Life Technologies, Carlsbad, Calif.) according to the manufacturer's instructions, first removing culture medium, rinsing with Dulbecco's phosphate buffered saline (Ca^2+ and Mg^2+-free), and then adding the TripleExpress™ reagent. Harvested cells are spun down, washed twice in Ca^2+- and Mg^2+-free Hank's Balanced Salt Solution with 20 mM HEPES and 10 mM glucose, pH 7.4 (HHnoCa solution), and counted with viability assessed using Trypan Blue. Cells are loaded with fluo-8 Ca^2+-sensitive dye in HHnoCa solution according to the manufacturer's directions (AAT Bioquest, Sunnyvale, Calif.), incubating at 37° C. for 20 minutes followed by 25 minutes at 22-25° C. After a wash in HHnoCa to remove extracellular dye, cells are resuspended in HHnoCa and plated at […] cells per well in a volume of 25 μl/well in 384 well black-wall, clear bottom plates (Hamamatsu, Middlesex, N.J.). Plates are then centrifuged to create a monolayer in the wells and stored in the dark until used.
Prior to analysis, compound plates are prepared with each compound at 6× the final desired concentration. From stock solutions at 10 mM in 100% DMSO, compounds are spotted in the desired amounts using an ECHO liquid handler (Labcyte, Sunnyvale, Calif.) into wells of a 384-well plate and then diluted with 50 μl of HHnoCa containing 750 nM Ro 25-6981 and 120 μM 5,7-dichlorokynurenic acid (both purchased from Tocris Bioscience (Bristol, England) and maintained as 10 mM stock solutions in 100% DMSO). To insure complete compound dissolution, these plates are then placed in an orbital shaker for at least one hour. Also prepared prior to the assay is a co-agonist plate containing HHnoCa with 240 μM glutamate, 2.4 mM glycine, and 7.2 mM CaCl2, which is 2.4× the desired final concentration of each reagent. Both the compound plate and co-agonist plate are 384-well polypropylene plates from Thermo Fisher Scientific, Waltham, Mass.
The assay is performed by first adding 10 μl solution from each well of the compound plate described above to the cell plate using a CyBiWell liquid handler (Analytik Jena AG, Jena, Germany), followed by 10 minutes pre-incubation in the dark. Cell plates are then loaded onto a Hamamatsu FDSS 6000 plate reader. After a 30-second baseline, 25 μl is added to each well from the co-agonist plate, and the fluorescence signal is recorded for another 2 minutes. FDSS software applies shading and autofluorescence correction, and resultant raw fluorescence measurements are exported in the form of a fluorescence ratio for each well to its own reading at time zero in the experiment. In each plate, negative control wells consist of wells where Ro 25-6981 and 5,7 dichlorokynurenic acid are present and co-agonist is applied in the absence of any added assay compound. Under these conditions, the Ca^2+ response to co-agonist is suppressed. Positive control wells also present in each plate contain 5,7 dichlorokynurenic acid but no Ro 25-6981, so that co-agonist addition results in a large Ca^2+ response. Compounds tested are evaluated on the basis of their ability to reverse the suppression of the Ca^2+ response mediated by Ro 25-6981, which is quantified as % reversal=100*(R−Rneg)/(Rpos−Rneg) where R is the fluorescence ratio for the test compound at the end of the experiment and Rneg and Rpos are the end ratios for the negative and positive controls, respectively. […]

T1 sequence (Q13224 27-1484, other chains not shown): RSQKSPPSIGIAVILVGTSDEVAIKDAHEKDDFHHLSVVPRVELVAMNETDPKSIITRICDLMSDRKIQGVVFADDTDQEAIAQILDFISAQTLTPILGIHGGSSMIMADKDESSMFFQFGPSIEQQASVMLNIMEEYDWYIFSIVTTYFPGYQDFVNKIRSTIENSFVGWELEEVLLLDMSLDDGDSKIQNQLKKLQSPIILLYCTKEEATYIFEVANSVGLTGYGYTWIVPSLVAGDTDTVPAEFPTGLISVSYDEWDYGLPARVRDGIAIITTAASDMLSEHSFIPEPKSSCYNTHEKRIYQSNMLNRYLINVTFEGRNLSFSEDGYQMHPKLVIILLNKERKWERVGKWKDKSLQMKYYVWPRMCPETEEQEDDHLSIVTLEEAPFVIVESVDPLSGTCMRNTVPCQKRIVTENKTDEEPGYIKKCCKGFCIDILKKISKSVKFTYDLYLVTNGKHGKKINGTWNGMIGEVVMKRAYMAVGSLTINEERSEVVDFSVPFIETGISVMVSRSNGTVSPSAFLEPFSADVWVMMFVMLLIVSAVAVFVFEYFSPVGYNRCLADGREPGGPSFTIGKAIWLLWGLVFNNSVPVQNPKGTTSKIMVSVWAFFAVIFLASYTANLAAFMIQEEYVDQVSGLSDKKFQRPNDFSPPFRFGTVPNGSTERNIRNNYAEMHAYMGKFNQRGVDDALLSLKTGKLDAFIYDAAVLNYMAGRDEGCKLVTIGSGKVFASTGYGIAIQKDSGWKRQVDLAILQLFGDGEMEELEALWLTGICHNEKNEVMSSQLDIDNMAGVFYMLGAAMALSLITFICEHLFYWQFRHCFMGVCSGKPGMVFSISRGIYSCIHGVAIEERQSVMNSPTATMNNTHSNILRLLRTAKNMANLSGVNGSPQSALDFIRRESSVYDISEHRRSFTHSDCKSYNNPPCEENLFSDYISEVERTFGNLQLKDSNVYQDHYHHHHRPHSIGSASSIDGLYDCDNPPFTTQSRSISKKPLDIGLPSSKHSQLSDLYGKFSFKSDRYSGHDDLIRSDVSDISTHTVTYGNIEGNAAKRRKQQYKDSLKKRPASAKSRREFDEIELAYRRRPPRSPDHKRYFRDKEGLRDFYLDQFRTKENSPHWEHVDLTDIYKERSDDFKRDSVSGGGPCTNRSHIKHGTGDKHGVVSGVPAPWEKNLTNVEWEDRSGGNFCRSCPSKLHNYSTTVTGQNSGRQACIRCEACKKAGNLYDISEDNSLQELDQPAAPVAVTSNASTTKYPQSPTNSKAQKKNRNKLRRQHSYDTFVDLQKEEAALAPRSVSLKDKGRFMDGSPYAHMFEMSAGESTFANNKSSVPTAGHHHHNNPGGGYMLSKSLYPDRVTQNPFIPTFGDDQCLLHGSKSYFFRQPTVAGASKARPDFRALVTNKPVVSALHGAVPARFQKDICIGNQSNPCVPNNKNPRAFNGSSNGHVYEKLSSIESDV

Row | Compound | Response Recovered (%)
1 | O=C(Cn1cnc2scc(-c3ccc(C(F)(F)F)cc3F)c2c1=O)N1CCCC1 [Example 38] | 10
2 | O=C(Cn1cnc2scc(-c3ccnc(C(F)(F)F)c3)c2c1=O)N1CCCC1 [Example 46, 3-[2-oxo-2-(pyrrolidin-1-yl)ethyl]-5-[2-(trifluoromethyl)pyridin-4-yl]-3H,4H-thieno[2,3-d]pyrimidin-4-one] | −1
3 | O=C(Cn1cnc2scc(-c3ccc(Cl)c(C(F)(F)F)c3)c2c1=O)N1CC[C@H](F)C1 [Example 65, 5-[4-chloro-3-(trifluoromethyl)phenyl]-3-{2-[(3S)-3-fluoropyrrolidin-1-yl]-2-oxoethyl}-3H,4H-thieno[2,3-d]pyrimidin-4-one] | 87
4 | O=C(Cn1cnc2sc(-c3ccc(Cl)cc3)cc2c1=O)N1CCOCC1 [Example 77, 6-(4-chlorophenyl)-3-[2-(morpholin-4-yl)-2-oxoethyl]-3H,4H-thieno[2,3-d]pyrimidin-4-one] | 18
5 | O=C(Cn1cnc2scc(-c3ccc(Cl)c(Cl)c3)c2c1=O)N1CC[C@H](F)C1 [Example 69, 5-(3,4-dichlorophenyl)-3-{2-[(3S)-3-fluoropyrrolidin-1-yl]-2-oxoethyl}-3H,4H-thieno[2,3-d]pyrimidin-4-one] | 94
6 | O=C(On1cnc2scc(-c3ccc(Cl)c(F)c3)c2c1=O)N1CCCC1 [Example 87, 5-(4-chloro-3-fluorophenyl)-4-oxo-3H,4H-thieno[2,3-d]pyrimidin-3-yl pyrrolidine-1-carboxylate] | 32
7 | O=C(Cn1cnc2scc(-c3cc(C(F)(F)F)cc(C(F)(F)F)c3)c2c1=O)N1CCCC1 [Example 48, 5-[3,5-bis(trifluoromethyl)phenyl]-3-[2-oxo-2-(pyrrolidin-1-yl)ethyl]-3H,4H-thieno[2,3-d]pyrimidin-4-one] | −1
8 | O=C(Cn1cnc2scc(-c3cncc(F)c3)c2c1=O)N1CCCC1 [Example 39, 5-(5-fluoropyridin-3-yl)-3-[2-oxo-2-(pyrrolidin-1-yl)ethyl]-3H,4H-thieno└2,3-d┘pyrimidin-4-one] | 3
9 | O=C(Cn1cnc2sc(-c3ccc(Cl)cc3)cc2c1=O)NC1CC1 [Example 76, 2-[6-(4-chlorophenyl)-4-oxo-3H,4H-thieno[2,3-d]pyrimidin-3-yl]-N-cyclopropylacetamide] | 34
10 | O=C(Cn1cnc2scc(-c3cccc(C(F)(F)F)c3)c2c1=O)N1CCCC1 [Example 55, 3-[2-oxo-2-(pyrrolidin-1-yl)ethyl]-5-[3-(trifluoromethyl)phenyl]-3H,4H-thieno[2,3-d]pyrimidin-4-one] | 33
11 | O=C(Cn1cnc2sc(-c3ccc(Cl)cc3)cc2c1=O)N1CCC(F)(F)CC1 [Example 78, 6-(4-chlorophenyl)-3-[2-(4,4-difluoropiperidin-1-yl)-2-oxoethyl]-3H,4H-thieno└2,3-d┘pyrimidin-4-one] | 13
12 | O=C(Cn1cnc2scc(-c3ccc(F)c(C(F)(F)F)c3)c2c1=O)N1CCCC1 [Example 47, 5-[4-fluoro-3-(trifluoromethyl)phenyl]-3-[2-oxo-2-(pyrrolidin-1-yl)ethyl]-3H,4H-thieno[2,3-d]pyrimidin-4-one] | 43
13 | O=C(Cn1cnc2scc(-c3ccc(Cl)cc3)c2c1=O)NC1CCC1 [Example 9, 2-[5-(4-chlorophenyl)-4-oxo-3H,4H-thieno[2,3-d]pyrimidin-3-yl]-N-cyclobutylacetamide] | 3
14 | O=C(On1cnc2scc(-c3ccc(F)c(Cl)c3)c2c1=O)N1CCC(F)C1 (stereo not drawn) [Example 88, 5-(3-chloro-4-fluorophenyl)-4-oxo-3H,4H-thieno[2,3-d]pyrimidin-3-yl 3-fluoropyrrolidine-1-carboxylate] | 83
15 | O=C(Cn1cnc2sc(-c3ccc(Cl)cc3)cc2c1=O)N1CCCCC1 [Example 75, 6-(4-chlorophenyl)-3-[2-oxo-2-(piperidin-1-yl)ethyl]-3H,4H-thieno[2,3-d]pyrimidin-4-one] | 0
16 | O=C(Cn1cnc2scc(-c3ccc(F)c(Cl)c3)c2c1=O)N1CCC(F)C1 (stereo not drawn) [Example 58, 5-(3-chloro-4-fluorophenyl)-3-[2-(3-fluoropyrrolidin-1-yl)-2-oxoethyl]-3H,4H-thieno[2,3-d]pyrimidin-4-one] | 65
17 | O=C(Cn1cnc2scc(-c3ccc(Cl)c(F)c3)c2c1=O)N1CCCC1 [Example 21, 5-(4-chloro-3-fluorophenyl)-3-(2-oxo-2-(pyrrolidin-1-yl)ethyl)thieno[2,3-d]pyrimidin-4(3H)-one] | 19
18 | O=C(Cn1cnc2scc(-c3ccc(Cl)c(F)c3)c2c1=O)N1CCC(F)C1 (stereo not drawn) [Example 59, 5-(4-chloro-3-fluorophenyl)-3-[2-(3-fluoropyrrolidin-1-yl)-2-oxoethyl]-3H,4H-thieno[2,3-d]pyrimidin-4-one] | 43
19 | O=C(Cn1cnc2scc(-c3ccc(C(F)(F)F)cc3)c2c1=O)N1CCCCC1 [Example 26, 3-[2-oxo-2-(piperidin-1-yl)ethyl]-5-[4-(trifluoromethyl)phenyl]-3H,4H-thieno[2,3-d]pyrimidin-4-one] | 1
20 | O=C(Cn1cnc2scc(-c3ccc(Cl)cc3)c2c1=O)N1CCC(O)C1 (stereo not drawn) [Example 6, 5-(4-chlorophenyl)-3-[2-(3-hydroxypyrrolidin-1-yl)-2-oxoethyl]-3H,4H-thieno[2,3-d]pyrimidin-4-one] | 3
21 | O=C(Nn1cnc2scc(-c3ccc(F)c(Cl)c3)c2c1=O)C1CCCC1 [Example 96, N-[5-(3-chloro-4-fluorophenyl)-4-oxo-3H,4H-thieno[2,3-d]pyrimidin-3-yl]cyclopentanecarboxamide] | 27
22 | O=C(CCn1cnc2scc(-c3ccc(Cl)c(C(F)(F)F)c3)c2c1=O)N1CCCC1 [Example 101, 5-(4-chloro-3-(trifluoromethyl)phenyl)-3-(3-oxo-3-(pyrrolidin-1-yl)propyl)thieno[2,3-d]pyrimidin-4(3H)-one] | 6
23 | O=C(Cn1c(C(F)(F)F)nc2scc(-c3ccc(Cl)cc3)c2c1=O)N1CCCC1 [Example 105, 5-(4-chlorophenyl)-3-[2-oxo-2-(pyrrolidin-1-yl)ethyl]-2-(trifluoromethyl)-3H,4H-thieno[2,3-d]pyrimidin-4-one] | −1
24 | O=C(Cn1cnc2scc(-c3ccc(Cl)cc3)c2c1=O)N1CCC(O)(c2ccccc2)CC1 [Example 15, 5-(4-chlorophenyl)-3-[2-(4-hydroxy-4-phenylpiperidin-1-yl)-2-oxoethyl]-3H,4H-thieno[2,3-d]pyrimidin-4-one] | −1
25 | O=C(Cn1cnc2scc(-c3ccc(Cl)cc3)c2c1=O)N1CCC(F)CC1 [Example 2, 5-(4-chlorophenyl)-3-[2-(4-fluoropiperidin-1-yl)-2-oxoethyl]-3H,4H-thieno[2,3-d]pyrimidin-4-one] | 25
26 | CCN(CC)C(=O)Cn1cnc2scc(-c3ccc(Cl)cc3)c2c1=O [Example 13, 2-[5-(4-chlorophenyl)-4-oxo-3H,4H-thieno[2,3-d]pyrimidin-3-yl]-N,N-diethylacetamide] | 5
27 | CC(C(=O)N1CCCC1)n1cnc2scc(-c3ccc(Cl)c(C(F)(F)F)c3)c2c1=O (stereo not drawn) [Example 56, 5-[4-chloro-3-(trifluoromethyl)phenyl]-3-[1-oxo-1-(pyrrolidin-1-yl)propan-2-yl]-3H,4H-thieno[2,3-d]pyrimidin-4-one] | 0
